The text below walks through data of patent publication US8227636B2, “Histone deacetylase inhibitor prodrugs” (Merck HDAC Research, LLC, priority 2004, dated 2012).

As a reminder, the IC50 is the concentration at which inhibition is half-maximal.

For assay [1], the target named is T1, histone deacetylase, subtype 1 (HDAC1) (Homo sapiens, UniProt Q13547).
T1 construct: Flag; made in house
As to the kind of experiment: HDAC1-Flag assay (in vitro deacetylation assay). The note with it: for inhibition at 10 µM: 10 μM compound, read-out: HDAC1 % INH 10 μM; for inhibition at 100 µM: 100 μM compound, read-out: HDAC1 % INH 100 μM; for IC50: epitope-tagged human HDAC1 complex, substrate at Km, fluorogenic acetylated lysine substrate, read-out: HDAC1 IC50 Ave. Format: biochemical. On the procedure:
Novel compounds were tested for their ability to inhibit histone deacetylase, subtype 1 (HDAC1) using an in vitro deacetylation assay. The enzyme source for this assay was an epitope-tagged human HDAC1 complex immuno-purified from stably expressing mammalian cells. The substrate consisted of a commercial product containing an acetylated lysine side chain (BIOMOL Research Laboratories, Inc., Plymouth Meeting, Pa.). Upon deacetylation of the substrate by incubation with the purified HDAC1 complex, a fluorophore is produced that is directly proportional to the level of deacetylation.

Assay [2] concerns murine erythroleukemia cell line SC9. As to the kind of experiment: MTS assay (Cell Titer 96 Aqueous One Solution Cell Proliferation Assay). Format: cell-based. The note with it: Mus musculus; SC9 cells, 48 hours incubation; unit inferred. The protocol:
The novel compounds of the present invention were tested for their ability to inhibit proliferation of the murine erythroleukemia cell line SC9. The MTS assay, also referred to as the Cell Titer 96 Aqueous One Solution Cell Proliferation Assay, is a colorimetric method for determining the number of viable cells in proliferation, cytotoxicity, or chemosensitivity assays. […] Murine erythroleukemia cells (SC-9) were incubated with vehicle or increasing concentrations of compound for 48 hours.
On the technique in general: Tetrazolium dyes change colour on reduction, which living cells bring about.

SMILES strings stand for the structures.

T1 sequence (Q13547 whole entry): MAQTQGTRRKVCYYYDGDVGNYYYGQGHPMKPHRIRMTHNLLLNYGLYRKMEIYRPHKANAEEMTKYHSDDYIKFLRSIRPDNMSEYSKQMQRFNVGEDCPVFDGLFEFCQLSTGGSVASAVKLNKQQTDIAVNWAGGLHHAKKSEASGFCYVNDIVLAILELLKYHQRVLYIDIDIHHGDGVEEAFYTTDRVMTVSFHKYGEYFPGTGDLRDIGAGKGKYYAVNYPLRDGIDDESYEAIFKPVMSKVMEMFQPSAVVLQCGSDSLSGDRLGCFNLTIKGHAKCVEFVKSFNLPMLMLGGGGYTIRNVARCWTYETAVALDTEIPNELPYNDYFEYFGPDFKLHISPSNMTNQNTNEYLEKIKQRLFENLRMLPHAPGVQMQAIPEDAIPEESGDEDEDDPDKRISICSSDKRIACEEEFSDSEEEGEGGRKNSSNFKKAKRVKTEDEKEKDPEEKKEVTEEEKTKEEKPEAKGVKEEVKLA

As for `O=C(CCCCCCC(=O)Nc1ccccc1)NOC(=O)CCCCCCC(=O)Nc1ccccc1` [I, Octanedioic acid phenylamide(7-phenylcarbamoyl-heptanoyloxy)-amide], in assay [1], the inhibition at 10 µM was 45%, the inhibition at 100 µM came to 79% and the IC50 worked out at 51900 nM. Besides, 785 ± 4.9 nM corresponded to half-maximal inhibition in assay [2] (IC50).
Take `Cc1ccc(C(=O)ONC(=O)CCCCCCC(=O)Nc2ccccc2)cc1` [XIV, Octanedioic acid (4-methyl-benzoyloxy)-amide phenylamide]: in assay [1], the inhibition at 10 µM amounted to 38% and the inhibition at 100 µM came out at 74%. The compound further yielded an IC50 in assay [2] of 862 nM.
For `CC(=O)ONC(=O)CCCCCCC(=O)Nc1ccccc1` [II, Octanedioic acid acetoxy-amide phenylamide] the same measures were -17%, 2% and 246 ± 78.4 nM.
Take `COc1cccc(C(=O)ONC(=O)CCCCCCC(=O)Nc2ccccc2)c1` [XII, Octanedioic acid (3-methoxy-benzoyloxy)-amide phenylamide]: in assay [1], the inhibition at 10 µM was 20% and the inhibition at 100 µM was determined as 43%. In assay [2], this compound yielded an IC50 of 494 nM.
The corresponding values for `COc1ccccc1C(=O)ONC(=O)CCCCCCC(=O)Nc1ccccc1` [XV, Octanedioic acid (2-methoxy-benzoyloxy)-amide phenylamide] are 23%, 48% and 592 nM.
As for `O=C(CCCCCCC(=O)Nc1ccccc1)NOC(=O)CCc1ccccc1` [V, Octanedioic acid phenylamide(3-phenyl-propionyloxy)-amide], in assay [1], the inhibition at 10 µM turned out to be 64%, the inhibition at 100 µM stood at 90% and the IC50 is 1680 ± 1200 nM. The compound further gave an IC50 in assay [2] of 491 ± 327 nM.
For `O=C(CCCCCCC(=O)Nc1ccccc1)NOC(=O)c1cccnc1` [III, Octanedioic acid phenylamide(pyridine-3-carbonyloxy)-amide] the same measures were 87%, 97%, 582 ± 312 nM and 252 ± 56.5 nM.
As for `O=C(CCCCCCC(=O)Nc1ccccc1)NOC(=O)[C@H](Cc1ccccc1)NC(=O)OCc1ccccc1` [XVII, [1-Benzyl-2-oxo-2-(7-phenylcarbamoyl-heptanoylaminooxy)-ethyl]-carbamic acid benzyl ester], in assay [1], the inhibition at 10 µM amounted to 94% and the inhibition at 100 µM came out at 99%. This compound returned an IC50 in assay [2] of 753 nM.
For `O=C(CCCCCCC(=O)Nc1ccccc1)NOC(=O)CCCc1ccccc1` [VI, Octanedioic acid phenylamide(4-phenyl-butyryloxy)-amide] the same measures were 27%, 62% and 1540 nM.
The corresponding values for `COc1ccc(C(=O)ONC(=O)CCCCCCC(=O)Nc2ccccc2)cc1` [XIII, Octanedioic acid (4-methoxy-benzoyloxy)-amide phenylamide] are 21%, 65% and 748 nM.
For `CCCCc1ccc(C(=O)ONC(=O)CCCCCCC(=O)Nc2ccccc2)cc1` [IV, Octanedioic acid (4-butyl-benzoyloxy)-amide phenylamide] the same measures were 10%, 50% and 1760 nM.
`O=C(CCCCCCC(=O)Nc1ccccc1)NOC(=O)c1ccc(-c2ccccc2)cc1` [VIII, Octanedioic acid (biphenyl-4-carbonyloxy)-amide phenylamide]: in assay [1], the inhibition at 10 µM was found to be 94% and the inhibition at 100 µM was 99%. The compound also returned an IC50 in assay [2] of 1380 nM.
As to `CC(C)(C)OC(=O)N[C@@H](Cc1ccccc1)C(=O)ONC(=O)CCCCCCC(=O)Nc1ccccc1` [XIX, [1-Benzyl-2-oxo-2-(7-phenylcarbamoyl-heptanoylaminooxy)-ethyl]-carbamic acid tert-butyl ester], in assay [1], the inhibition at 10 µM stood at 87% and the inhibition at 100 µM was 96%. The compound further showed an IC50 in assay [2] of 446 nM.
For `O=C(CCCCCCC(=O)Nc1ccccc1)NOC(=O)/C=C/c1ccccc1` [VII, Octanedioic acid (3-phenyl-acryloyloxy)-amide phenylamide] the same measures were 26%, 45% and 648 nM.
The corresponding values for `O=C(CCCCCCC(=O)Nc1ccccc1)NOC(=O)[C@@H](Cc1ccccc1)NC(=O)OCc1ccccc1` [XVIII, [1-Benzyl-2-oxo-2-(7-phenylcarbamoyl-heptanoylaminooxy)-ethyl]-carbamic acid benzyl ester] are 78%, 93% and 443 nM.
The corresponding values for `O=C(CCCCCCC(=O)Nc1ccccc1)NOC(=O)c1ccc(Cl)cc1` [XVI, Octanedioic acid (4-chloro-benzoyloxy)-amide phenylamide] are 24%, 36% and 434 nM.
For `O=C(CCCCCCC(=O)Nc1ccccc1)NOC(=O)c1ccccc1` [IX, Octanedioic acid benzoyloxy-amide phenylamide], in assay [1], the inhibition at 10 µM turned out to be 20% and the inhibition at 100 µM amounted to 60%. Also, the IC50 in assay [2] was determined as 1200 nM.
The corresponding values for `O=C(CCCCCCC(=O)Nc1ccccc1)NOC(=O)c1ccc2ccccc2c1` [X, Octanedioic acid (naphthalene-2-carbonyloxy)-amide phenylamide] are 9%, 22% and 1790 nM.
Regarding `O=C(CCCCCCC(=O)Nc1ccccc1)NOC(=O)c1cccc2ccccc12` [XI, Octanedioic acid (naphthalene-1-carbonyloxy)-amide phenylamide], in assay [1], the inhibition at 10 µM was found to be 5% and the inhibition at 100 µM was determined as 5%. The compound further yielded an IC50 in assay [2] of 5220 nM.
